In patent US20260027121A1, “LIGAND ACTING ON ADENOSINE RECEPTORS AND COMPOSITION COMPRISING SAME FOR PREVENTION, ALLEVIATION, OR TREATMENT OF OBESITYS” (FUTURE MEDICINE CO., LTD., priority 2022, published 2026):

Experiments:
brown adipocytes [1] = assay: Lipolysis: glycerol and free fatty acid levels in conditioned medium; type: cell-based, mouse; settings: 0.1 μM, 24 hours
Procedure: (§1) Adipocyte precursor cells capable of differentiating into brown adipocytes were isolated from mouse brown adipose tissue. Cells were cultured in Dulbecco's modified Eagle's medium (Welgene, LM001-07) containing 10% fetal bovine serum (FBS, Gibco, 16000044) and 1% Penicillin Streptomycin (Welgene, LS202-02) at 37° C. in a humidified atmosphere with 5% CO2. When the cells reached about 100% confluency, the cells were exposed to a differentiation medium supplemented with 2.5 mM isobutyl methylxanthine (IBMX, Cayman, I5879), 0.125 mM indomethacin (Cayman, 70270), 1 μM dexamethasone (Cayman), 1 μg/mL insulin (Sigma, I9278), and 1 nM triiodothyronine (T3, Cayman, 6028) for 3 days for adipogenesis. Then, the cells were maintained in a growth medium containing 1 μg/mL insulin and 1 nM triiodothyronine (T3) for 3 days.
The free fatty acid (FFA) levels in the medium were measured using an NEFA reagent (WAKO, 436-91693) according to the manufacturer's product protocol.
Glycerol and free fatty acid (FFA) levels in a medium were measured using a glycerol reagent (Sigma Aldrich, F6428) and a NEFA reagent (WAKO, 436-91693) according to the manufacturer's product protocols.

brown adipocytes [2] = assay: Immunoblot of mitochondrial proteins and UCP1 in brown adipocytes; type: cell-based, mouse; settings: 0.1 μM, 24 hours, FIG. 4D
Procedure: as §1
(§2) In the case of Western blots, the primary antibodies used for Western blots are summarized in [Table 2] above. An anti-rabbit horseradish peroxidase antibody (1:3000, Thermo Fisher, 31460) and an anti-mouse horseradish peroxidase antibody (1:3000, Jackson, 115-035-174) were used as secondary antibodies. All antibodies were diluted in a blocking buffer (5% skimmed milk or 5% bovine serum albumin in TBST). Western blot images were acquired using a Fusion Solo chemiluminescence imaging system (Vilber Lourmat) and analyzed with Evolution Capt software (version 17.03). NIH ImageJ software was used for quantification.

brown adipocytes [3] = assay: Immunoblot of PKA downstream proteins (P-HSL, P-CREB) in brown adipocytes; type: cell-based, mouse; settings: 0.1 μM, 24 hours, FIG. 3D
Procedure: as §1, §2

CIDEA reporter mice = assay: qPCR of brown adipocyte markers in brown adipose tissue; type: in vivo, mouse; settings: BAT, 1 mg kg-1/day, 10 days
Procedure: Mice were treated with vehicle (CTL), LJ-4378 (LJ, 1 mg kg-1/day), […] (CGS21680, 1 mg kg-1/day), or A3 antagonist (LJ-4433, 1 mg kg-1/day) for 10 days. (A-B) Representative bioluminescence in dorsal and lateral positions (n=3, mean±SEM, ** p<0.01, **** p<0.0001). (C) Representative ex vivo fluorescence image and quantification of fluorescence intensity of BAT and iWAT (n=3, mean±SEM, ** p<0.01, **** p<0.0001). (D) qPCR analysis of UCP1 and CIDEAM RNA expression levels of brown adipose tissue (BAT) (n=3, mean±SEM, * p<0.05, ** p<0.01, *** p<0.001).
qPCR analysis was performed to investigate the adenosine receptor expression levels in brown adipocytes differentiated from immortalized brown adipocyte precursor cells. Primers used for the qPCR analysis are listed in the following [Table 3].

[4] = biological target: T1, A2A adenosine receptor (hA2AR) (Homo sapiens, UniProt P29274); assay: Radioligand binding affinity, adherent HEK293 cells stably transfected with hAR cDNA; settings: normalized to NECA 10 μM
T1 construct: expressed in transfected cells; host or cells: HEK293 (adherent, stably transfected)
Procedure: (§3) The binding affinity of LJ-4378 and derivatives thereof to A2AAR and A3AR is as shown in the following [Table 1]. All binding affinity experiments were performed using adherent HEK293 cells stably transfected with cDNAs encoding appropriate hAR bonds, and were performed using 1 nM [3H]17, 10 nM [3H]18, or 0.2 nM [3H]16 as radioligands for A2A and A3AR, respectively. Values were normalized to a non-specific binder 5′-N-ethylcarboxamidoadenosine (NECA, 10 μM).

[5] = biological target: T2, A3 adenosine receptor (hA3AR) (Homo sapiens, UniProt P0DMS8); assay: as above; settings: normalized to NECA 10 μM
T2 construct: expressed in transfected cells; host or cells: HEK293 (adherent, stably transfected)
T2 sequence (P0DMS8 1-318): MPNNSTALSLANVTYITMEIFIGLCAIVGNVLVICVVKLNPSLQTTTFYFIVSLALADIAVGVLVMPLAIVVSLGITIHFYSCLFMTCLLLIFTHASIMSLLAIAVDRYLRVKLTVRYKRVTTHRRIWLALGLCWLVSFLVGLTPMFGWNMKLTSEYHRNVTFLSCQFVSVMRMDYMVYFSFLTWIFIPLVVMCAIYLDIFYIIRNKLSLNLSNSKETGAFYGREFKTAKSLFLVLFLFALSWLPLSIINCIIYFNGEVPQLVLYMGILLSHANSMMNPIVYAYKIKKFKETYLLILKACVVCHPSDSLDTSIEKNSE
Procedure: as §3

T1 sequence (P29274 whole entry): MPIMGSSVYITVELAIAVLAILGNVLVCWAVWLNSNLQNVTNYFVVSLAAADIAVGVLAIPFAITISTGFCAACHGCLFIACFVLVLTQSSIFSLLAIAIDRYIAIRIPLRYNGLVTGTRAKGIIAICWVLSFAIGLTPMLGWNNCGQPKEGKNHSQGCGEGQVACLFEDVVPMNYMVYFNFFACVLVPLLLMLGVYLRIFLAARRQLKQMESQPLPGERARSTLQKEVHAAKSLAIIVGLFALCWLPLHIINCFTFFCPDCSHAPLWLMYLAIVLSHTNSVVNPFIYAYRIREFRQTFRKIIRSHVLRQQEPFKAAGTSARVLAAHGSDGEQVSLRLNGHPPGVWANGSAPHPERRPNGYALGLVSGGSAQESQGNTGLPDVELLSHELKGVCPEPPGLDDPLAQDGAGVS

Row | Ki [4] | Ki [5] | Compound | other results
1 |  |  | CCNC(=O)[C@H]1O[C@@H](n2cnc3c(N)nc(NCCc4ccc(CCC(=O)O)cc4)nc32)[C@H](O)[C@@H]1O [CGS21680, reference compound] | glycerol level in conditioned medium, fold change (brown adipocytes [1]; FIG. 3B): 1.51±0.08 fold; FFA level in conditioned medium, fold change (brown adipocytes [1]; FIG. 3C): 1.29±0.09 fold; COXIV, fold increase (brown adipocytes [2]): increased; MCAD, fold increase (brown adipocytes [2]): increased; UCP1, fold increase (brown adipocytes [2]): increased; P-CREB, fold increase (brown adipocytes [3]): 2.00±0.11 fold; P-HSL, fold increase (brown adipocytes [3]): 1.54±0.05 fold; Cidea mRNA level, fold increase (CIDEA reporter mice): 1.29±0.12 fold; Ucp1 mRNA level, fold increase (CIDEA reporter mice): 1.72±0.17 fold
2 | 117 nM | 64.7 nM | CC#Cc1nc(N)c2ncn([C@@H]3SC[C@@H](O)[C@H]3O)c2n1 [Compound 9a, (2R,3R,4S)-2-(6-amino-2-(prop-1-yn-1-yl)-9H-purin-9-yl)tetrahydrothiophene-3,4-diol] | 
3 | 772 nM | 30.5 nM | CC#Cc1nc(NCc2cccc(F)c2)c2ncn([C@@H]3SC[C@@H](O)[C@H]3O)c2n1 [Compound 9b, (2R,3R,4S)-2-(6-((3-fluorobenzyl)amino)-2-(prop-1-yn-1-yl)-9H-purin-9-yl)tetrahydro thiophene-3,4-diol] | 
4 | 221 nM | 1.5 nM | CC#Cc1nc(NCc2cccc(Cl)c2)c2ncn([C@@H]3SC[C@@H](O)[C@H]3O)c2n1 [Compound 9c, (2R,3R,4S)-2-(6-((3-chlorobenzyl)amino)-2-(prop-1-yn-1-yl)-9H-purin-9-yl)tetrahydro thiophene-3,4-diol] | 
5 | 469 nM | 11.1 nM | CC#Cc1nc(NCc2cccc(Br)c2)c2ncn([C@@H]3SC[C@@H](O)[C@H]3O)c2n1 [Compound 9d, (2R,3R,4S)-2-(6-((3-bromobenzyl)amino)-2-(prop-1-yn-1-yl)-9H-purin-9-yl)tetrahydro thiophene-3,4-diol] | 
6 | 121 nM | 20.1 nM | CC#Cc1nc(NCc2cccc(I)c2)c2ncn([C@@H]3SC[C@@H](O)[C@H]3O)c2n1 [Compound 9e, (2R,3R,4S)-2-(6-((3-iodobenzyl)amino)-2-(prop-1-yn-1-yl)-9H-purin-9-yl)tetrahydro thiophene-3,4-diol] | 
7 | 23.9 nM | 67.3 nM | CCC#Cc1nc(N)c2ncn([C@@H]3SC[C@@H](O)[C@H]3O)c2n1 [Compound 9f, (2R,3R,4S)-2-(6-amino-2-(but-1-yn-1-yl)-9H-purin-9-yl)tetrahydrothiophene-3,4-diol] | 
8 | 914 nM | 9.5 nM | CCC#Cc1nc(NCc2cccc(F)c2)c2ncn([C@@H]3SC[C@@H](O)[C@H]3O)c2n1 [Compound 9g, (2R,3R,4S)-2-(2-(but-1-yn-1-yl)-6-((3-fluorobenzyl)amino)-9H-purin-9-yl)tetrahydrothiophene-3,4-diol] | 
9 | 239 nM | 3.8 nM | CCC#Cc1nc(NCc2cccc(Cl)c2)c2ncn([C@@H]3SC[C@@H](O)[C@H]3O)c2n1 [Compound 9h, (2R,3R,4S)-2-(2-(but-1-yn-1-yl)-6-((3-chlorobenzyl)amino)-9H-purin-9-yl)tetrahydrothiophene-3,4-diol] | 
10 | 113 nM | 0.293 nM | CCC#Cc1nc(NCc2cccc(Br)c2)c2ncn([C@@H]3SC[C@@H](O)[C@H]3O)c2n1 [Compound 9i, (2R,3R,4S)-2-(6-((3-bromobenzyl)amino)-2-(but-1-yn-1-yl)-9H-purin-9-yl)tetrahydrothiophene-3,4-diol] | 
11 | 58 nM | 8.6 nM | CCC#Cc1nc(NCc2cccc(I)c2)c2ncn([C@@H]3SC[C@@H](O)[C@H]3O)c2n1 [Compound 9j, (2R,3R,4S)-2-(2-(but-1-yn-1-yl)-6-((3-iodobenzyl)amino)-9H-purin-9-yl)tetrahydrothiophene-3,4-diol] | 
